The target in one series is T1, hKCNQ2/3 (Homo sapiens, UniProt O43525+O43526).
T1 construct: expressed in transfected cells; host or cells: CHO
The series can be described thus: cell-based. The text has this:
Test Method 1: hKCNQ2/3 Thallium Flux Assay
Test Objective: To test the in vitro concentration-response relationship of compounds using FLIPR thallium flux assay in CHO cell lines stably expressing hKCNQ2/3.
According to the split ratio, the cells were transferred to another T-75 flask containing complete cell growth medium. Note: To maintain logarithmic growth, the cells should be kept in a subconfluent monolayer state. Based on the cell doubling time, the cells were passaged every 2-3 days.
• (1) Day 1 - Cell preparation: Cells were digested as described above, and cell density and viability were determined using a Cell Countess. The volume of the single-cell suspension was adjusted with complete cell growth medium. Then, hKCNQ2/3_CHO cells were seeded onto PDL-precoated 384-well plates at a density of approximately 20,000 cells/well (30 µL/well). The plates were then incubated overnight in a 37°C, 5% CO2 humidified air incubator. • (2) Day 2 - Compound preparation: Test compounds were diluted with dimethyl sulfoxide (DMSO) to stock concentrations and stored in a -20°C freezer. A compound addition program was set up on the ECHO liquid handler, and compounds were added to the plates using the ECHO liquid handler. Retigabine (RTG) was used as a positive control at a highest concentration of 100 µM with 3-fold serial dilutions for a total of 9 doses. Buffer containing 5 mM K^+ and 1 mM Tl^+ was added to the plates. Notes: 1) K2SO4 and Tl2SO4 were prepared in 1× chloride-free buffer. Depending on the voltage-gated potassium channel involved, the concentrations of Tl^+ and K^+ should be adjusted. Tl^+ concentration is approximately 0.5-5 mM, and K^+ concentration is approximately 5-30 mM. 2) Each 1 mM solution of K2SO4 and Tl2SO4 contains 2 mM K^+ and Tl^+; the final concentration should be calculated based on the ion concentration. 3) TlCl readily precipitates and a chloride-free buffer is required. • (3) Day 2 -Assay testing: Once the cells reached the desired confluence, the cell assay plates were removed from the incubator. Assay buffer and diluted Tl^+ dye (Molecular Devices # R8222) were prepared. The medium was discarded using a Bravo liquid handler, and 25 µL of Tl^+ dye was added to each well. After 1 hour of incubation, the cell assay plates, composite plates and FLIPR tips were placed in the FLIPR^TETRA (Molecular Devices, USA) for FLIPR detection. After setting up the tips, baseline readings were taken for 60 seconds, then 12.5 µL was added from the composite plate (3×) to the cell assay plate, and data were recorded for at least 5 minutes. • (4) Data processing: Maximum signals were generated by the FLIPR software. […] Data quality control: S/B > 2.00, Z factor > 0.50.
• (1) Day 1 - Cell preparation: Cells were digested as described above, and cell density and viability were determined using a Cell Countess. The volume of the single-cell suspension was adjusted with complete cell growth medium. Then, hKCNQ2/3_CHO cells were seeded onto PDL-precoated 384-well plates at a density of approximately 20,000 cells/well (30 µL/well). The plates were then incubated overnight in a 37°C, 5% CO2 humidified air incubator. • (2) Day 2 - Compound preparation: Test compounds were diluted with dimethyl sulfoxide (DMSO) to stock concentrations and stored in a -20°C freezer. A compound addition program was set up on the ECHO liquid handler, and compounds were added to the plates using the ECHO liquid handler. Retigabine (RTG) was used as a positive control at a highest concentration of 100 µM with 3-fold serial dilutions for a total of 9 doses. Buffer containing 5 mM K^+ and 1 mM Tl^+ was added to the plates. Notes: 1) K2SO4 and Tl2SO4 were prepared in 1× chloride-free buffer. Depending on the voltage-gated potassium channel involved, the concentrations of Tl^+ and K^+ should be adjusted. Tl^+ concentration is approximately 0.5 mM -5 mM, and K^+ concentration is approximately 5 mM -30 mM.

A further series has as its target CYP2D6 (Homo sapiens, UniProt P10635). The series can be described thus: Drug-drug interaction evaluation: CYP inhibition in human liver microsomes (cocktail method). On the procedure: (§1) The cocktail method using specific probe substrates for CYP1A2, CYP2C9, CYP2C19, CYP2D6 and CYP3A was used to evaluate the inhibitory effect of the compounds on the activity of human liver microsomal cytochrome P450 isoenzymes (CYP1A2, CYP2C9, CYP2C19, CYP2D6 and CYP3A).
(§2) Human liver microsomes, probe substrates, positive control inhibitors, and reduced nicotinamide adenine dinucleotide phosphate (NADPH).
(§3) To the corresponding wells of a reaction plate, 20 µL of substrate solution was added; to blank wells, 20 µL of potassium phosphate buffer was added.
(§4) To the corresponding wells, 2 µL of test compound and positive control working solution were added; to inhibitor-free and blank wells, 2 µL of solvent was added.
(§5) Human liver microsome working solution was prepared, and 158 µL of human liver microsome working solution was added to each well of the reaction plate.
(§6) The plate was pre-incubated at 37.0°C for 10 minutes.
(§7) To start the reaction, 20 µL of NADPH cofactor working solution was added to the reaction plate.
(§8) After incubation in a 37.0°C water bath with mixing for 10 minutes, 400 µL of stop solution was added to terminate the reaction.
(§9) The sample plate was centrifuged at 4000 rpm for 20 minutes.
(§10) 200 µL of supernatant was taken and mixed with 100 µL of pure water as diluent, and the plate was shaken to mix well.
(§11) Analysis was performed by liquid chromatography-tandem mass spectrometry (LC-MS/MS).
(§12) Using the percentage of remaining activity as the ordinate and the test compound concentration as the abscissa, a non-linear regression analysis was performed with a three-parameter or four-parameter model using XL fit software to calculate the IC50 value.
(§13) y = (max)/(1 + (((x)/(IC50)))^−hillslope) [formula]
(§14) y = min + (max−min)/(1 + (((x)/(IC50)))^−hillslope) [formula]
(§15) max = maximum enzyme activity; min = minimum enzyme activity; x = concentration of test compound or positive control inhibitor; y = enzyme activity at the corresponding concentration; hillslope = slope; IC50 = half-maximal inhibitory concentration. The four-parameter equation was used when the minimum enzyme activity was within ±10%; otherwise the three-parameter equation was used.
In general terms: Microsomes from liver hold many membrane-bound enzymes, among them those of drug oxidation.

The target in a further series is T2, CYP1A2 (Homo sapiens, UniProt P05177).
T2 sequence (P05177 1-516): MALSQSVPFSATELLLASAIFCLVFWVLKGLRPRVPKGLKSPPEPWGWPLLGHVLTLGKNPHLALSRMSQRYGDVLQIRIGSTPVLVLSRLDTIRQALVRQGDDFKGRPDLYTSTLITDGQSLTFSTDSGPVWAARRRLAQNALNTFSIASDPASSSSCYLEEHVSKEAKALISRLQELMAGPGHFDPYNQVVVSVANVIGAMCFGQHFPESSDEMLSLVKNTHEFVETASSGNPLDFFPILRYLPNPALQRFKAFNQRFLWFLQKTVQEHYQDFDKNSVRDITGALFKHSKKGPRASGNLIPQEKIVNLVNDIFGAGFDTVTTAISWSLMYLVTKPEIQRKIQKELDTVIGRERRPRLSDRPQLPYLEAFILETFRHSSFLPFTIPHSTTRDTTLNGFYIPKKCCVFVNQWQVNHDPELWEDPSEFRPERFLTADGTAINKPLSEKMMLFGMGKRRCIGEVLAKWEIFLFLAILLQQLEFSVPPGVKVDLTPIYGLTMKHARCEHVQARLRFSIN
The description is as above. On the procedure: as §1, §2, §3, §4, §5, §6, §7, §8, §9, §10, §11, §12, §13, §14, §15

The target in the next series is CYP2C19 (Homo sapiens, UniProt P33261). The series is described as above. The protocol: as §1, §2, §3, §4, §5, §6, §7, §8, §9, §10, §11, §12, §13, §14, §15
CYP2C19, sequence (P33261 whole entry): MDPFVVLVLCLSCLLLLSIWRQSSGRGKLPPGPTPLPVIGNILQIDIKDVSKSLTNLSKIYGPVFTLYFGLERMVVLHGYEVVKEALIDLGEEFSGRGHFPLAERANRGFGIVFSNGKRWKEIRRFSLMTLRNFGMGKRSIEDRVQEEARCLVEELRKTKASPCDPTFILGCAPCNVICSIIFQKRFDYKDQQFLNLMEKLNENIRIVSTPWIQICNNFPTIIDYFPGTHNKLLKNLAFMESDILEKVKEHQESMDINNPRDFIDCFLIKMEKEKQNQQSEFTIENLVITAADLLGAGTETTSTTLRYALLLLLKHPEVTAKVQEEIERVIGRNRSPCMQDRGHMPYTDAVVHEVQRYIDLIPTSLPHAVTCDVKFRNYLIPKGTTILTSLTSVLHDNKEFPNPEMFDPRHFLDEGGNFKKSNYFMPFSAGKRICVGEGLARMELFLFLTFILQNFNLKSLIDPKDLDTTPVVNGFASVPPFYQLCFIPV
The target in the next series is CYP3A4 (Homo sapiens, UniProt P08684). Described as above. The protocol: as §1, §2, §3, §4, §5, §6, §7, §8, §9, §10, §11, §12, §13, §14, §15
CYP3A4, sequence (P08684 2-503): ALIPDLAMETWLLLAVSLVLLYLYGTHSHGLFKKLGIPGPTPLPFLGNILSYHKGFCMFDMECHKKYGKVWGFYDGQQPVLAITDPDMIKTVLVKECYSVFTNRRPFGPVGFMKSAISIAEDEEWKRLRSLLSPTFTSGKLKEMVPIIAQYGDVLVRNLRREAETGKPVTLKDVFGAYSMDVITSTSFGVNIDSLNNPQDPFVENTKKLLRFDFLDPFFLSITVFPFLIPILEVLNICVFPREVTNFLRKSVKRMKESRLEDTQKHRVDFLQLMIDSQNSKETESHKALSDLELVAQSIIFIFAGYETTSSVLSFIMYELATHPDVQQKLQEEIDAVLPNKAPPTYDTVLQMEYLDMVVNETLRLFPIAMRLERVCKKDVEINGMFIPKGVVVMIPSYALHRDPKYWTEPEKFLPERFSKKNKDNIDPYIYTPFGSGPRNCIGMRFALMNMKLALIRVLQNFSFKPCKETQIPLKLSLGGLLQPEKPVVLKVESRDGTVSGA
For another series, the target named is CYP2C9 (Homo sapiens, UniProt P11712). Described as above. The protocol: as §1, §2, §3, §4, §5, §6, §7, §8, §9, §10, §11, §12, §13, §14, §15
CYP2C9, sequence (P11712 whole entry): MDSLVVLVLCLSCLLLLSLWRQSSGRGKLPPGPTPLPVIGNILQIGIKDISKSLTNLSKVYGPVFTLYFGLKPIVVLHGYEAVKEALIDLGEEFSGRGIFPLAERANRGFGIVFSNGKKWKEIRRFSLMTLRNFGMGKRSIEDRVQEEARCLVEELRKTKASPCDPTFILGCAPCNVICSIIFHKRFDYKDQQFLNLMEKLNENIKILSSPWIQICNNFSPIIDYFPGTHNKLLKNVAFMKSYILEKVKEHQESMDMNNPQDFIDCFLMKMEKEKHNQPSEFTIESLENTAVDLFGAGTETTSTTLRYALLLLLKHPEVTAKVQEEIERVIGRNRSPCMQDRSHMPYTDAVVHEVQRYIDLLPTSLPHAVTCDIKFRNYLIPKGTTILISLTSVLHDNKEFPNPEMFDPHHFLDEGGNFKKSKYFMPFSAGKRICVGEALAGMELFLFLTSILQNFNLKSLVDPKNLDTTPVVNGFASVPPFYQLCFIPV
Series [1] concerns maximal electroshock-induced epilepsy model. Put plainly: Maximal electroshock-induced epilepsy model, behavioral pharmacodynamics. The series is classed as in vivo. The settings on record: dose 5 mg/kg, oral, one hour before electrical stimulation; male CD-1 mice. The text has this:
Assay Example 2: Evaluation of the behavioral pharmacodynamics of the test compounds in a maximal electroshock-induced epilepsy model
This study used behavioral tests in male CD-1 mice to investigate the effects of test compounds on acute epileptic seizures behavior induced by maximal electroshock.
Male CD-1 mice (25 to 35g) were used as the experimental animals and fed with standard feed (Beijing Vital River Laboratory Animal Technology Co., Ltd.).
After arriving at the animal facility, the experimental animals needed to acclimatize for at least one week. The mice were observed daily for vital signs, and randomly divided into groups according to their body weights one day before the drug administration. One hour before the electrical stimulation, different dosages of the test compound were orally administered to each group. On the day of the assay, the male CD-1 mice in each group were anesthetized locally at the cornea with 2% lidocaine. Then, silver bipolar electrodes were used to electrically stimulate the cornea of the mice with 18 mA, 60 Hz, a pulse width of 0.6 ms, and a stimulation time of 1 s to induce seizures. Subsequently, the latency of seizures and the duration of limb rigidity in mice after the electrical stimulation were observed, and the protection rate from seizures for each group was statistically analyzed.
On the technique in general: In the maximal electroshock model the usual endpoint is tonic extension of the hind limbs.

CYP2D6, sequence (P10635 whole entry): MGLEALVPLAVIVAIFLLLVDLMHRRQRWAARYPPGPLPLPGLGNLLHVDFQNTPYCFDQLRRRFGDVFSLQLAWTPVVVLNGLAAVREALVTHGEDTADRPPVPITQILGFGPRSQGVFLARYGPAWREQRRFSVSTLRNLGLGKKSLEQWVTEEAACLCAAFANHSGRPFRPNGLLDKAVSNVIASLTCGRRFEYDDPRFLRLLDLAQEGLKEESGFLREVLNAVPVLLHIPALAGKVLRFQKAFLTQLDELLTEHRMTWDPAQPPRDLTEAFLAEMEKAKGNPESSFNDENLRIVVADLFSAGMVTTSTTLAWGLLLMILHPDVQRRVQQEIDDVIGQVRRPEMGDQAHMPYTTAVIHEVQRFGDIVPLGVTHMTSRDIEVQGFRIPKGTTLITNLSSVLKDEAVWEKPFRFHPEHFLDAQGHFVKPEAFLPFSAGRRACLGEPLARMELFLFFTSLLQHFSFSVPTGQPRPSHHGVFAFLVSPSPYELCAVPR
T1 sequence (O43526 whole entry): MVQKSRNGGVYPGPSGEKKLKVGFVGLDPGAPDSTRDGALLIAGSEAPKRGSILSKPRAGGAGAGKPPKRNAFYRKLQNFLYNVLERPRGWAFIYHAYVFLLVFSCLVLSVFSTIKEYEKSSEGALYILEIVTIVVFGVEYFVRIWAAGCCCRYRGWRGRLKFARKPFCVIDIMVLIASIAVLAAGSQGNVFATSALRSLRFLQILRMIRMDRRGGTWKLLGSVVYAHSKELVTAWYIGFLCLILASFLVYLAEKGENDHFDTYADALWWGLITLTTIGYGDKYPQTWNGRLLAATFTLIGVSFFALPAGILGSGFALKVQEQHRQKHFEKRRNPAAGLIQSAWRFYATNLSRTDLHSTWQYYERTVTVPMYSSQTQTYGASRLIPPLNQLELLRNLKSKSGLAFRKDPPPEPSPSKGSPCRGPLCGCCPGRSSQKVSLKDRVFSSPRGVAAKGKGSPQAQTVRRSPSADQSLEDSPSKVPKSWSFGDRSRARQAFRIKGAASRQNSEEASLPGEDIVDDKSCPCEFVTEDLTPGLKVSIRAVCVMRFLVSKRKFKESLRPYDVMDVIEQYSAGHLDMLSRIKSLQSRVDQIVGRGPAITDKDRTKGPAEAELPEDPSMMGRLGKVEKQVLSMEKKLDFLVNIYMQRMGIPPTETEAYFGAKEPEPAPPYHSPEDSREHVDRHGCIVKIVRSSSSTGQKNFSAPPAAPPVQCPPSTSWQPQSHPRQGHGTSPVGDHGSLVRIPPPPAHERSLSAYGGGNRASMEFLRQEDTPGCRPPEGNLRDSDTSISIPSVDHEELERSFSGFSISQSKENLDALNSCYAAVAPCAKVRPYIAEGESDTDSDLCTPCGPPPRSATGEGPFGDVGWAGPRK
T1 sequence (O43525 whole entry): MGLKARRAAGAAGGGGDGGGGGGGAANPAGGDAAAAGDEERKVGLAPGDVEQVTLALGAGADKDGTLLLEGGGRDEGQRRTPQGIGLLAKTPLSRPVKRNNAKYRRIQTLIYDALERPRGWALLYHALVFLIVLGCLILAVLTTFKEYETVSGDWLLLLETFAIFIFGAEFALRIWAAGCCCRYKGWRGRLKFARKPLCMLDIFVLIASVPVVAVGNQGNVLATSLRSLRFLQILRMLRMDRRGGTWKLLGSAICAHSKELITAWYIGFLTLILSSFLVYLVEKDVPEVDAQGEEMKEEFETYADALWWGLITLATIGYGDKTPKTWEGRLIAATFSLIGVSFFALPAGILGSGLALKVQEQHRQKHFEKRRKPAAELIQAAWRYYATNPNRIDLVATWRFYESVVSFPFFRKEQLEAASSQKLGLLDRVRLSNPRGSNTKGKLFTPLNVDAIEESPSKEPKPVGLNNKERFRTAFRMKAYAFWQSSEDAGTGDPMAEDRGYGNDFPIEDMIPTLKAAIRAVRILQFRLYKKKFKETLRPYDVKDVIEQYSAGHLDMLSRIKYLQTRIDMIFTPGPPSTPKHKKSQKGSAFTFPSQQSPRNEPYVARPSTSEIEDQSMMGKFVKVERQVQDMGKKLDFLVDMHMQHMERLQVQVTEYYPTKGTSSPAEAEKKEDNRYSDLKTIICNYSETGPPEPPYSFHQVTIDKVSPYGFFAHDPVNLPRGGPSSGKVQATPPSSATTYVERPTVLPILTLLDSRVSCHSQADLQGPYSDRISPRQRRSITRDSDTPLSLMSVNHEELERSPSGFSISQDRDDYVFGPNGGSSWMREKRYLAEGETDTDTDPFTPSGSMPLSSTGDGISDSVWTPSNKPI

Regarding `Cc1c(NC(=O)CC2(C)CC2)n(C)c2cc(Nc3ccc(F)cc3)ccc12` [Compound 12], a half-maximal response at hKCNQ2/3 (EC50) required 0.8 µM. Further, the IC50 (commonly the concentration that gives 50% inhibition) was 15 µM at CYP2D6; 20 µM at CYP1A2; 13 µM against CYP2C19; 37 µM against CYP3A4; 11 µM at CYP2C9.
`Cc1c(NC(=O)CC(C)(C)C)n(C)c2cc(Nc3ncc(F)cc3F)ccc12` [Compound 26]: the EC50 – broadly, the concentration giving half of the maximal effect – on hKCNQ2/3 is 0.4 µM. The IC50 against CYP2D6 was above 50 µM; at CYP1A2 it was 19 µM; on CYP2C19 it was 44 µM; on CYP3A4 it was above 50 µM; against CYP2C9 it was above 50 µM.
For `Cc1cc(F)cnc1Nc1ccc2c(C)c(NC(=O)CC(C)(C)C)n(C)c2c1` [Compound 31], the “Seizure incidence (%)” value in series [1] is recorded as 16.7%. The IC50 against CYP2D6, against CYP1A2, against CYP2C19, against CYP3A4 and against CYP2C9 was above 50 µM in each case.
`Cc1c(NC(=O)CC2(C)CC2)n(C)c2cc(Nc3ncc(F)cc3F)ccc12` [Compound 35]: on hKCNQ2/3, it took 0.49 µM to reach a half-maximal effect (EC50). Moreover, the concentration for half-maximal inhibition (IC50) against CYP2D6, at CYP1A2, at CYP2C19, against CYP3A4 and at CYP2C9 was above 50 µM throughout.

The values are drawn from patent EP4810483A1, “6- AND 5-HETEROARYL DERIVATIVES AND USE THEREOF” (CMS Research & Development Pte. Ltd., priority 2023, dated 2025).
